Assay results from patent US6358885B1, “Substituted phenylheterocyclic herbicides” (Mississippi State University, priority 1992, dated 2002).

Tests used:
barley = assay: Test B preemergence/postemergence greenhouse plant response rating 0 to 10; assay type: in vivo, Hordeum vulgare; settings: for Plant response rating, Barley: 0 to 10 scale
How it was run: (§1)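 Test chemicals, dissolved in a non-phytotoxic solvent, were applied to soil at planting and, at the same time, over foliage of seedlings at the one to four leaf stage.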

barnyardgrass = assay: as above; assay type: in vivo, Echinochloa crus-galli; settings: for Plant response rating, Barnyardgrass: 0 to 10 scale
How it was run: as §1

chickweed [1] = assay: as above; assay type: in vivo, Stellaria media; settings: 0 to 10 scale
How it was run: as §1

corn = assay: as above; assay type: in vivo, Zea mays; settings: for Plant response rating, Corn: 0 to 10 scale
How it was run: as §1

crabgrass [2] = assay: as above; assay type: in vivo, Digitaria spp.; settings: for Plant response rating, Crabgrass: 0 to 10 scale
How it was run: as §1

giant foxtail [3] = assay: as above; assay type: in vivo, Setaria faberii; settings: 0 to 10 scale
How it was run: as §1

rape = assay: as above; assay type: in vivo, Brassica napus; settings: 0 to 10 scale
How it was run: as §1

sorghum = assay: as above; assay type: in vivo, Sorghum bicolor; settings: 0 to 10 scale
How it was run: as §1

wheat = assay: as above; assay type: in vivo, Triticum aestivum; settings: 0 to 10 scale
How it was run: as §1

bedstraw = assay: Test C preemergence/postemergence greenhouse plant response rating 0 to 100; assay type: in vivo, Galium aparine; settings: POSTEMERGENCE; for Plant response rating, Bedstraw: 0 to 100 scale
How it was run: (§2)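 Compounds in non-phytotoxic solvent applied preemergence to sandy loam one day after planting, postemergence at the 1–4 leaf stage, or to ~2.5 cm floodwater over silt loam.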

chickweed [4] = assay: as above; assay type: in vivo, Stellaria media; settings: POSTEMERGENCE; for Plant response rating, Chickweed: 0 to 100 scale
How it was run: as §2

crabgrass [5] = assay: as above; assay type: in vivo, Digitaria sanguinalis; settings: POSTEMERGENCE; for Plant response rating, Crabgrass: 0 to 100 scale
How it was run: as §2

downy brome = assay: as above; assay type: in vivo, Bromus tectorum; settings: POSTEMERGENCE; for Plant response rating Downy Brome: 0 to 100 scale
How it was run: as §2

giant foxtail [6] = assay: as above; assay type: in vivo, Setaria faberii; settings: POSTEMERGENCE; for Plant response rating, Giant foxtail: 0 to 100 scale
How it was run: as §2

wild buckwheat = assay: as above; assay type: in vivo, Polygonum convolvulus; settings: POSTEMERGENCE; for Plant response rating, Wild buckwheat: 0 to 100 scale
How it was run: as §2

wild oat = assay: as above; assay type: in vivo, Avena fatua; settings: POSTEMERGENCE; for Plant response rating, Wild oat: 0 to 100 scale
How it was run: as §2

rice = assay: Test C flood test plant response rating 0 to 100; assay type: in vivo, Oryza sativa; settings: for Plant response rating Rice Japonica: flood test species listed under POSTEMERGENCE, 0 to 100 scale
How it was run: as §2

duck salad = assay: Test C flood test plant response rating 0 to 100; assay type: in vivo, Heteranthera limosa; settings: for Plant response rating Duck salad: flood test species listed under POSTEMERGENCE, 0 to 100 scale
How it was run: as §2

[7] = POSTEMERGENCE section, flood test, Rate 4 g/ha
[8] = Rate 16 g/ha, under POSTEMERGENCE head (flood test species)

## COc1cc(-c2nn3c(c2Cl)CCCC3)c(F)cc1Cl [Compound 29]
barley; POSTEMERGENCE, Rate 50 g/ha
  Plant response rating (0 to 10 scale), Barley: 5
barley; POSTEMERGENCE, Rate 200 g/ha
  Plant response rating, Barley: 7
barley; PREEMERGENCE, Rate 50 g/ha
  Plant response rating, Barley: 0
barley; Rate 200 g/ha, PREEMERGENCE
  Plant response rating, Barley: 4
barnyardgrass; POSTEMERGENCE, Rate 50 g/ha
  Plant response rating (0 to 10 scale), Barnyardgrass: 8
barnyardgrass; POSTEMERGENCE, Rate 200 g/ha
  Plant response rating, Barnyardgrass: 10
barnyardgrass; PREEMERGENCE, Rate 50 g/ha
  Plant response rating, Barnyardgrass: 4
barnyardgrass; Rate 200 g/ha, PREEMERGENCE
  Plant response rating, Barnyardgrass: 8
Chickweed [1]; POSTEMERGENCE, Rate 200 g/ha
  Plant response rating, Chickweed: 8
Chickweed [1]; PREEMERGENCE, Rate 50 g/ha
  Plant response rating, Chickweed: 3
Chickweed [1]; Rate 200 g/ha, PREEMERGENCE
  Plant response rating, Chickweed: 7
corn; POSTEMERGENCE, Rate 50 g/ha
  Plant response rating (0 to 10 scale), Corn: 6
corn; POSTEMERGENCE, Rate 200 g/ha
  Plant response rating, Corn: 7
corn; PREEMERGENCE, Rate 50 g/ha
  Plant response rating, Corn: 0
corn; Rate 200 g/ha, PREEMERGENCE
  Plant response rating, Corn: 6
Crabgrass [2]; POSTEMERGENCE, Rate 50 g/ha
  Plant response rating (0 to 10 scale), Crabgrass: 4
Crabgrass [2]; POSTEMERGENCE, Rate 200 g/ha
  Plant response rating, Crabgrass: 5
Crabgrass [2]; PREEMERGENCE, Rate 50 g/ha
  Plant response rating, Crabgrass: 8
Crabgrass [2]; Rate 200 g/ha, PREEMERGENCE
  Plant response rating, Crabgrass: 9
Giant foxtail [3]; POSTEMERGENCE, Rate 50 g/ha
  Plant response rating, Giant foxtail: 3
Giant foxtail [3]; PREEMERGENCE, Rate 50 g/ha
  Plant response rating, Giant foxtail: 8
Giant foxtail [3]; Rate 200 g/ha, POSTEMERGENCE
  Plant response rating, Giant foxtail: 6
Giant foxtail [3]; Rate 200 g/ha, PREEMERGENCE
  Plant response rating, Giant foxtail: 9
rape; POSTEMERGENCE, Rate 50 g/ha
  Plant response rating, Rape: 8
rape; PREEMERGENCE, Rate 50 g/ha
  Plant response rating, Rape: 8
rape; Rate 200 g/ha, POSTEMERGENCE
  Plant response rating, Rape: 10
rape; Rate 200 g/ha, PREEMERGENCE
  Plant response rating, Rape: 10
sorghum; POSTEMERGENCE, Rate 50 g/ha
  Plant response rating, Sorghum: 5
sorghum; PREEMERGENCE, Rate 50 g/ha
  Plant response rating, Sorghum: 0
sorghum; Rate 200 g/ha, POSTEMERGENCE
  Plant response rating, Sorghum: 6
sorghum; Rate 200 g/ha, PREEMERGENCE
  Plant response rating, Sorghum: 1
wheat; POSTEMERGENCE, Rate 50 g/ha
  Plant response rating, Wheat: 4
wheat; PREEMERGENCE, Rate 50 g/ha
  Plant response rating, Wheat: 0
wheat; Rate 200 g/ha, POSTEMERGENCE
  Plant response rating, Wheat: 6
wheat; Rate 200 g/ha, PREEMERGENCE
  Plant response rating, Wheat: 4
bedstraw; 62 g/ha
  Plant response rating, Bedstraw: 100
bedstraw; 250 g/ha
  Plant response rating, Bedstraw: 100
bedstraw; Rate 4 g/ha
  Plant response rating (0 to 100), Bedstraw: 90
bedstraw; Rate 16 g/ha
  Plant response rating (0 to 100), Bedstraw: 100
Chickweed [4]; 62 g/ha
  Plant response rating, Chickweed: 60
Chickweed [4]; 250 g/ha
  Plant response rating, Chickweed: 95
Chickweed [4]; Rate 4 g/ha
  Plant response rating (0 to 100), Chickweed: 10
Chickweed [4]; Rate 16 g/ha
  Plant response rating (0 to 100), Chickweed: 40
Crabgrass [5]; 62 g/ha
  Plant response rating, Crabgrass: 20
Crabgrass [5]; 250 g/ha
  Plant response rating, Crabgrass: 50
Crabgrass [5]; Rate 4 g/ha
  Plant response rating (0 to 100), Crabgrass: 0
Crabgrass [5]; Rate 16 g/ha
  Plant response rating (0 to 100), Crabgrass: 20
Downy brome; 62 g/ha
  Plant response rating Downy Brome: 80
Downy brome; 250 g/ha
  Plant response rating Downy Brome: 95
Downy brome; Rate 4 g/ha
  Plant response rating (0 to 100), Downy Brome: 20
Downy brome; Rate 16 g/ha
  Plant response rating (0 to 100), Downy Brome: 60
Giant foxtail [6]; 62 g/ha
  Plant response rating, Giant foxtail: 70
Giant foxtail [6]; 250 g/ha
  Plant response rating, Giant foxtail: 100
Giant foxtail [6]; Rate 4 g/ha
  Plant response rating (0 to 100), Giant foxtail: 0
Giant foxtail [6]; Rate 16 g/ha
  Plant response rating (0 to 100), Giant foxtail: 20
Wild buckwheat; 62 g/ha
  Plant response rating, Wild buckwheat: 100
Wild buckwheat; 250 g/ha
  Plant response rating, Wild buckwheat: 100
Wild buckwheat; Rate 4 g/ha
  Plant response rating (0 to 100), Wild buckwheat: 80
Wild buckwheat; Rate 16 g/ha
  Plant response rating (0 to 100), Wild buckwheat: 90
Wild oat; 62 g/ha
  Plant response rating, Wild oat: 60
Wild oat; 250 g/ha
  Plant response rating, Wild oat: 90
Wild oat; Rate 4 g/ha
  Plant response rating (0 to 100), Wild oat: 20
Wild oat; Rate 16 g/ha
  Plant response rating (0 to 100), Wild oat: 40
rice; [7]
  Plant response rating (0 to 100), Rice Japonica: 30
rice; [8]
  Plant response rating (0 to 100), Rice Japonica: 65
rice; 62 g/ha
  Plant response rating Rice Japonica: 70
rice; 250 g/ha
  Plant response rating Rice Japonica: 90
Duck salad; [7]
  Plant response rating (0 to 100), Duck salad: 20
Duck salad; [8]
  Plant response rating (0 to 100), Duck salad: 85
Duck salad; 62 g/ha
  Plant response rating Duck salad: 95
Duck salad; 250 g/ha
  Plant response rating Duck salad: 100
